# Assay: Stability test of amidite: 0.1 M solution in acetonitrile stored in the dark at room temperature, analysed by UHPLC
# Format: physicochemical
# Conditions: 0.1 M in acetonitrile
# Method: • Device used: ACQUITY Arc UHPLC system manufactured by Waters Corporation • Column: Xbridge BEH C18, 2.5 μm, 3.0×100 mm, Column XP manufactured by Waters Corporation • Mobile phase: Gradient
# • Flow rate: 0.85 mL/min • Detection: PDA (200 to 400 nm) • Column temperature: 30° C. • Analysis time: 10.00 min
# The amidite a3 (purity was 96.3%) obtained in Example 1, and an amidite a3′ (purity was 90.9%) synthesized according to the method described in Patent Document 5 were each dissolved in acetonitrile to prepare a 0.1 M solution.
# Of the two 0.1 M solutions obtained, the solution containing the amidite a3 of Example 1 was stored in the dark at room temperature for 7 days. On the other hand, the solution containing the amidite a3′ of Patent Document 5 was stored in the dark at room temperature for 17 hours.
# The UHPLC results of the amidites a3 and a3′ contained respectively in the stored solutions are shown in Tables 7 and 8, and the UHPLC-MS results of the amidites a3 and a3′ contained respectively in the stored solutions are shown in FIGS. 12 and 13.
Compound,"% Area of main UHPLC peak after storage (stored for 7 days, retention time 7.335 min, purity before storage 96.3%) [%]","Stability in stored solution, compared by UHPLC peaks (a3 stored 7 days versus a3′ stored 17 hours)","% Area of main UHPLC peak after storage (stored for 17 hours, retention time 5.866 min, purity before storage 90.9%) [%]"
"COc1ccc(C(OC[C@]23CN(/C(=N/C(=O)OCC4c5cc(C(C)(C)C)ccc5-c5ccc(C(C)(C)C)cc54)NC(C)(C)C)C(C2OP(OCCC#N)N(C(C)C)C(C)C)[C@H](n2cc(C)c(=O)[nH]c2=O)O3)(c2ccccc2)c2ccc(OC)cc2)cc1 (stereo partly drawn) [amidite a3, di-tBu-Fmoc-GuNA[t-Bu]-T amidite]",95.21,more stable,
"COc1ccc(C(OC[C@@]23CN(/C(=N/C(=O)OCC4c5ccccc5-c5ccccc54)NC(C)(C)C)C([C@H](n4cc(C)c(=O)[nH]c4=O)O2)[C@H]3OP(OCCC#N)N(C(C)C)C(C)C)(c2ccccc2)c2ccc(OC)cc2)cc1 (stereo partly drawn) [amidite a3′, reference compound]",,,76.00
